In this test the test system is HaCaT cells. Briefly: MTT cytotoxicity assay on human keratinocytes (skin irritation potential). The class given is cell-based. Conditions: two hours. An excerpt: To evaluate the skin irritation potential of compositions C and D (containing paraphenyldiamine) illustrated in example 1, an in vitro test was used, consisting of a cytotoxicity assay performed on a line of human keratinocytes (transformed human keratinocytes, HaCaT cells) that maintain full epidermal differentiation capability.
In this case, the goal of the test was to determine the effects of compositions C and D illustrated in Example 1 on the proliferation of keratinocytes through the cell vitality test, indirectly measured by MTT staining (Mossnam T, […], J. Immunol. Methods, 65:55-63).
The specimen comprising composition C or D was previously mixed with oxidant cream in the proportion 1:1.5 and left to act for 15 minutes. […]
The cells were treated for two hours to simulate the conditions of use of the dye. At the end of the two hours, the cells were subjected to the MTT test.
From this value, the irritant potential of composition C and composition D can be estimated. Negative control comprised no treatment, whereas the surfactant sodium lauryl sulphate (SLS), whose cytotoxicity is well known, was used as positive control. Each experiment was done in triplicate, on cells plated 24 hours previously.
(In general: Tetrazolium dyes change colour on reduction, which living cells bring about.)

Take `CCCCCCCCCCCCOS(=O)(=O)[O-].[Na+]` [SLS, sodium lauryl sulphate]: the “Cell vitality % (versus negative control)” value by setting is: (Dose 0.03 mg/mL) 101.5%; (Dose 0.06 mg/mL) 109.7%; (Dose 0.12 mg/mL) 74.0%; (Dose 0.25 mg/mL) 3.4%; (Dose 0.5 mg/mL) 3.1%. In addition, the IC50 – broadly, the concentration at which inhibition is half-maximal – (Homo sapiens, 2 h, concentration reducing cell vitality by 50% versus untreated cells, theoretical value from regression curve, MTT) came to 148 µg/mL.

The values are drawn from patent EP2072037A1, “Hair dyeing compositions” (Farmen International Cosmetics Distribution S.p.A, priority 2007, dated 2009).
